# Laboratory results taken from patent US20240067693A1, “POLYPEPTIDES AND USES THEREOF” (MEDIMMUNE LIMITED, priority 2020, published 2024).
# Numbered stars: 1 amine (or outer) side, 2 acyl side, 3 side chain; on linkers, the order of the positions; unused ones are H or OH. Bridge positions count the residues as written; N and C are the ends. Square brackets hold non-standard residues; d marks the D form. Side chains are listed from the residue outwards. Peptide text beside a SMILES is read from it. * marks the point of attachment. C18 diacid = O=C(O)CCCCCCCCCCCCCCCCC(=O)*; γGlu = O=C(O)[C@H](CCC(=O)[*:2])N[*:1]; Aib = CC(C)(N)C(=O)O
# Tests used:
# [1] = molecular target: T1, human calcitonin receptor (hCTR) (Homo sapiens, UniProt P30988); experiment: cAMP production in 1321N1 cells with stable recombinant expression of human calcitonin receptor (hCTR); assay type: cell-based; details: cAMP, 1321N1 cells, assay buffer with 0.1% BSA; read-out: EC50 (pM) hCTR
# T1 construct: expressed in transfected cells
# T1 sequence (P30988 25-474): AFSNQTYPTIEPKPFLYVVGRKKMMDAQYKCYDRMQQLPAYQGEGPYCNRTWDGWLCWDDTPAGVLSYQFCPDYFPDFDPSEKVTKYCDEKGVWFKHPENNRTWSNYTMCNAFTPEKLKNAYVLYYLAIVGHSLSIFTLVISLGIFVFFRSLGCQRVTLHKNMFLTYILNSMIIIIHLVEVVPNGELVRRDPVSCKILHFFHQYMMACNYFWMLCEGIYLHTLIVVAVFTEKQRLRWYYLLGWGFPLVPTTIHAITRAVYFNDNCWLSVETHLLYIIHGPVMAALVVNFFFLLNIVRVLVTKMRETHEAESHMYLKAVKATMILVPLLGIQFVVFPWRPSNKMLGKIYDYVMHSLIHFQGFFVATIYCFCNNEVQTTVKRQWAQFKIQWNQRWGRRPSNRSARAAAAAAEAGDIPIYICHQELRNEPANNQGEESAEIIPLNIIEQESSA
# Method in brief: (§1)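 Thawed cells in HBSS/0.1% BSA/25 mM HEPES pH 7.4 with 0.5 mM IBMX were incubated with peptides 30 min at room temperature; cAMP read by HTRF. EC50 from 4-parameter fit of % activation relative to maximal amylin or calcitonin effect.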
# [2] = molecular target: T2, human amylin receptor (calcitonin receptor co-expressed with receptor activity modifying protein, RAMP3) (hAMYR3) (Homo sapiens, UniProt O60896+P30988); experiment: cAMP production in 1321N1 cells with stable recombinant expression of human amylin receptor (hAMYR3); assay type: cell-based; details: for Ratio (selectivity hAMYR vs hCTR, ratio of EC50 values at the two receptors): EC50 hCTR / EC50 hAMYR3; for EC50: cAMP, 1321N1 cells, assay buffer with 0.1% BSA, read-out: EC50 (pM) hAMYR3
# T2 construct: expressed in transfected cells
# T2 sequence (P30988 25-474): T1 sequence (P30988 25-474)
# T2 sequence (O60896 24-148 partner): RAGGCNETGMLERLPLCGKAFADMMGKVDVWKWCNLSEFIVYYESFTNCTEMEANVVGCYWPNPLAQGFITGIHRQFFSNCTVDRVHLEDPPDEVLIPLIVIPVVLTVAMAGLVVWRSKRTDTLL
# Method in brief: as §1
EC50 [1] [pM],"Ratio (selectivity hAMYR vs hCTR, ratio of EC50 values at the two receptors) [2]",EC50 [2] [pM],Compound
15600,15,1060,"CC[C@H](C)[C@H](NC(=O)[C@@H]1CCCN1C(=O)CNC(=O)[C@H](Cc1ccccc1)NC(=O)[C@H](CC(N)=O)NC(=O)C(C)(C)NC(=O)[C@H](CO)NC(=O)[C@H](CO)NC(=O)[C@H](Cc1c[nH]cn1)NC(=O)[C@H](CCCNC(=N)N)NC(=O)[C@H](CC(C)C)NC(=O)[C@H](Cc1ccccc1)NC(=O)[C@H](CC(N)=O)NC(=O)[C@H](C)NC(=O)[C@H](CC(C)C)NC(=O)[C@H](CCCNC(=N)N)NC(=O)[C@H](CCC(N)=O)NC(=O)[C@@H](NC(=O)[C@H](C)NC(=O)[C@@H]1CSSC[C@H](NC(=O)[C@@H](N)CCCCNC(=O)CC[C@H](NC(=O)CC[C@H](NC(=O)CCCCCCCCCCCCCCCCC(=O)O)C(=O)O)C(=O)O)C(=O)N[C@@H](CC(N)=O)C(=O)N[C@@H]([C@@H](C)O)C(=O)N[C@@H](C)C(=O)N[C@@H]([C@@H](C)O)C(=O)N1)[C@@H](C)O)C(=O)N[C@@H](CC(C)C)C(=O)N1CCC[C@H]1C(=O)N1CCC[C@H]1C(=O)N[C@H](C(=O)NC(C)(C)C(=O)N[C@H](C(=O)NCC(=O)N[C@@H](CO)C(=O)N[C@@H](CC(N)=O)C(=O)N[C@H](C(=O)N[C@@H](Cc1ccc(O)cc1)C(N)=O)[C@@H](C)O)C(C)C)[C@@H](C)O [Peptide 90, K(γE-γE-C18diacid)[CNTATC]ATQRLANFLRHSS(Aib)NFGPILPPT(Aib)VGSNTY-amide] (H-K([γGlu-γGlu-C18 diacid])CNTATCATQRLANFLRHSS[Aib]NFGPILPPT[Aib]VGSNTY-NH2; disulfide 2-7; N-terminus assumed)"
2360,12,200,"CC[C@H](C)[C@H](NC(=O)[C@@H]1CCCN1C(=O)CNC(=O)[C@H](Cc1ccccc1)NC(=O)[C@H](CC(N)=O)NC(=O)C(C)(C)NC(=O)[C@H](CO)NC(=O)[C@H](CO)NC(=O)[C@H](Cc1c[nH]cn1)NC(=O)[C@@H](NC(=O)[C@H](CC(C)C)NC(=O)[C@H](Cc1ccccc1)NC(=O)[C@H](CC(N)=O)NC(=O)[C@H](C)NC(=O)[C@H](CC(C)C)NC(=O)[C@H](CCCNC(=N)N)NC(=O)[C@H](CCC(N)=O)NC(=O)[C@@H](NC(=O)[C@H](C)NC(=O)[C@@H]1CSSC[C@H](NC(=O)[C@@H](N)CCCCNC(=O)CC[C@H](NC(=O)CC[C@H](NC(=O)CCCCCCCCCCCCCCCCC(=O)O)C(=O)O)C(=O)O)C(=O)N[C@@H](CC(N)=O)C(=O)N[C@@H]([C@@H](C)O)C(=O)N[C@@H](C)C(=O)N[C@@H]([C@@H](C)O)C(=O)N1)[C@@H](C)O)C(C)C)C(=O)N[C@@H](CC(C)C)C(=O)N1CCC[C@H]1C(=O)N1CCC[C@H]1C(=O)N[C@H](C(=O)N[C@@H](CC(N)=O)C(=O)N[C@H](C(=O)NCC(=O)N[C@@H](CO)C(=O)NC(C)(C)C(=O)N[C@H](C(=O)N[C@@H](Cc1ccc(O)cc1)C(N)=O)[C@@H](C)O)C(C)C)[C@@H](C)O [Peptide 91, K(γE-γE-C18diacid)[CNTATC]ATQRLANFLVHSS(Aib)NFGPILPPTNVGS(Aib)TY-amide] (H-K([γGlu-γGlu-C18 diacid])CNTATCATQRLANFLVHSS[Aib]NFGPILPPTNVGS[Aib]TY-NH2; disulfide 2-7; N-terminus assumed)"
44400,130,341,"CC[C@H](C)[C@H](NC(=O)[C@@H]1CCCN1C(=O)CNC(=O)[C@H](Cc1ccccc1)NC(=O)[C@H](CC(N)=O)NC(=O)C(C)(C)NC(=O)[C@H](CO)NC(=O)[C@H](CO)NC(=O)[C@H](Cc1c[nH]cn1)NC(=O)[C@H](CCCNC(=N)N)NC(=O)[C@H](CC(C)C)NC(=O)[C@H](Cc1ccccc1)NC(=O)[C@H](CC(N)=O)NC(=O)[C@H](C)NC(=O)[C@H](CC(C)C)NC(=O)[C@H](CCCNC(=N)N)NC(=O)[C@H](CCC(N)=O)NC(=O)[C@@H](NC(=O)[C@H](C)NC(=O)[C@@H]1CSSC[C@H](NC(=O)[C@@H](N)CCCCNC(=O)CC[C@H](NC(=O)CC[C@H](NC(=O)CCCCCCCCCCCCCCCCC(=O)O)C(=O)O)C(=O)O)C(=O)N[C@@H](CC(N)=O)C(=O)N[C@@H]([C@@H](C)O)C(=O)N[C@@H](C)C(=O)N[C@@H]([C@@H](C)O)C(=O)N1)[C@@H](C)O)C(=O)N[C@@H](CC(C)C)C(=O)N1CCC[C@H]1C(=O)N1CCC[C@H]1C(=O)N[C@H](C(=O)N[C@@H](CC(N)=O)C(=O)N[C@H](C(=O)NCC(=O)N[C@@H](CO)C(=O)NC(C)(C)C(=O)N[C@H](C(=O)N[C@@H](Cc1ccc(O)cc1)C(N)=O)[C@@H](C)O)C(C)C)[C@@H](C)O [Peptide 92, K(γE-γE-C18diacid)[CNTATC]ATQRLANFLRHSS(Aib)NFGPILPPTNVGS(Aib)TY-amide] (H-K([γGlu-γGlu-C18 diacid])CNTATCATQRLANFLRHSS[Aib]NFGPILPPTNVGS[Aib]TY-NH2; disulfide 2-7; N-terminus assumed)"
1900,6,322,"CC(C)C[C@H](NC(=O)[C@H](CCCNC(=N)N)NC(=O)[C@H](CCC(N)=O)NC(=O)[C@@H](NC(=O)[C@H](C)NC(=O)[C@@H]1CSSC[C@H](NC(=O)[C@H](CCCCN)NC(=O)[C@@H](N)CCCCNC(=O)CC[C@H](NC(=O)CCCCCCCCCCCCCCCCC(=O)O)C(=O)O)C(=O)N[C@@H](CC(N)=O)C(=O)N[C@@H]([C@@H](C)O)C(=O)N[C@@H](C)C(=O)N[C@@H]([C@@H](C)O)C(=O)N1)[C@@H](C)O)C(=O)N[C@@H](C)C(=O)N[C@@H](CC(N)=O)C(=O)N[C@@H](Cc1ccccc1)C(=O)N[C@@H](CC(C)C)C(=O)NC(C)(C)C(=O)N[C@@H](Cc1c[nH]cn1)C(=O)N[C@@H](CO)C(=O)N[C@@H](CO)C(=O)N[C@@H](CC(N)=O)C(=O)N[C@@H](CC(N)=O)C(=O)N[C@@H](Cc1ccccc1)C(=O)NCC(=O)N1CCC[C@H]1C(=O)NC(C)(C)C(=O)N[C@@H](CC(C)C)C(=O)N1CCC[C@H]1C(=O)N1CCC[C@H]1C(=O)N[C@H](C(=O)N[C@@H](CC(N)=O)C(=O)N[C@H](C(=O)NCC(=O)N[C@@H](CO)C(=O)N[C@@H](CC(N)=O)C(=O)N[C@H](C(=O)N[C@@H](Cc1ccc(O)cc1)C(N)=O)[C@@H](C)O)C(C)C)[C@@H](C)O [Peptide 94, K(γE-C18diacid)K[CNTATC]ATQRLANFL(Aib)HSSNNFGP(Aib)LPPTNVGSNTY-amide] (H-K([γGlu-C18 diacid])KCNTATCATQRLANFL[Aib]HSSNNFGP[Aib]LPPTNVGSNTY-NH2; disulfide 3-8; N-terminus assumed)"
1170,2,691,"CC[C@H](C)[C@H](NC(=O)[C@@H]1CCCN1C(=O)CNC(=O)[C@H](Cc1ccccc1)NC(=O)[C@H](CC(N)=O)NC(=O)[C@H](CC(N)=O)NC(=O)[C@H](CO)NC(=O)[C@H](CO)NC(=O)[C@H](Cc1c[nH]cn1)NC(=O)C(C)(C)NC(=O)[C@H](CC(C)C)NC(=O)[C@H](Cc1ccccc1)NC(=O)[C@H](CC(N)=O)NC(=O)[C@H](C)NC(=O)[C@H](CC(C)C)NC(=O)[C@H](CCCNC(=N)N)NC(=O)[C@H](CCC(N)=O)NC(=O)[C@@H](NC(=O)[C@H](C)NC(=O)[C@@H]1CSSC[C@H](NC(=O)[C@H](CCCCN)NC(=O)[C@@H](N)CCCCNC(=O)CC[C@H](NC(=O)CCCCCCCCCCCCCCCCC(=O)O)C(=O)O)C(=O)N[C@@H](CC(N)=O)C(=O)N[C@@H]([C@@H](C)O)C(=O)N[C@@H](C)C(=O)N[C@@H]([C@@H](C)O)C(=O)N1)[C@@H](C)O)C(=O)NC(C)(C)C(=O)N1CCC[C@H]1C(=O)N1CCC[C@H]1C(=O)N[C@H](C(=O)N[C@@H](CC(N)=O)C(=O)N[C@H](C(=O)NCC(=O)N[C@@H](CO)C(=O)N[C@@H](CC(N)=O)C(=O)N[C@H](C(=O)N[C@@H](Cc1ccc(O)cc1)C(N)=O)[C@@H](C)O)C(C)C)[C@@H](C)O [Peptide 95, K(γE-C18diacid)K[CNTATC]ATQRLANFL(Aib)HSSNNFGPI(Aib)PPTNVGSNTY-amide] (H-K([γGlu-C18 diacid])KCNTATCATQRLANFL[Aib]HSSNNFGPI[Aib]PPTNVGSNTY-NH2; disulfide 3-8)"
